What is called AC50 is the midpoint of the concentration-response curve, whichever way the signal moves.

This is an account of results in PubChem BioAssay AID504539 (Broad Institute, 2011).

This test relates to Cell-based prion protein 5' UTR reporter, plate reader. The test is described as follows: prion protein 5' UTR mRNA inhibitors – cell-based, plate reader, cherry-picked samples, dose response (AID 504539).

Molecules are shown by their SMILES. Where only a bound is given, the exact number is not on record here.

As to `Cc1ccc(NC(=O)c2cc3ccccc3oc2=O)cc1S(=O)(=O)N(C)C`, the AC50 was less than 38 nM.

As for `CC(=O)O[C@H]1C(=O)[C@@]2(C)[C@H]([C@H](OC(=O)c3ccccc3)[C@]3(O)C[C@H](OC(=O)[C@H](O)[C@@H](NC(=O)c4ccccc4)c4ccccc4)C(C)=C1C3(C)C)[C@]1(OC(C)=O)CO[C@@H]1C[C@@H]2O`, the AC50 is 227 nM.

As to `N#CC1=C(N)OC2=C(CCc3ccccc32)C1c1ccccc1` (configuration not stated), the AC50 is 945 nM.

In the case of `CN(C)CCNc1ccc2ncn3c4ccc(O)cc4c(=O)c1c23`, the AC50 was 2470 nM.

As for `O=C(Nc1nc2ccccc2[nH]1)c1ccccc1F`, the AC50 is 210 nM.

Consider `CCN(CC)c1ccc2cc(-c3nc4ccccc4[nH]3)c(=O)oc2c1`, for which the AC50 was 868 nM.

Take `COc1cc2c(c(OC)c1OC)-c1ccc(SC)c(=O)cc1C(NC(=O)c1ccccc1)CC2` (configuration not stated): the AC50 was less than 38 nM.

Consider `O=C(/C=C/Nc1ccccc1Br)c1ccccn1`, for which the AC50 is 281 nM.

As to `C[C@H]1CCC/C=C/[C@@H]2C[C@H](O)C[C@H]2[C@H](O)[C@H](S(=O)c2ccc(O)cc2)CC(=O)O1` (some centres not stated), the concentration at half-maximal activity (AC50) was 182 nM.

As for `Cn1ncnc2c(=O)n(C)c(=O)nc1-2`, the concentration at half-maximal activity (AC50) is 135 nM.

`Cc1nn(C(C)(C)C)c(C)c1/C=N/OC(=O)Nc1ccc(Cl)cc1`: the AC50 was less than 38 nM.

With `O=C(N/N=C/c1c[nH]c2ccccc12)c1[nH]c2ccc(Br)cc2c1-c1ccccc1`, the AC50 is 774 nM.

Consider `CCC(=O)Nc1cc2nn(-c3ccc(C)cc3)nc2cc1C`, for which the AC50 was 465 nM.

With `COc1cccc2c1C(=O)c1c(O)c3c(c(O)c1C2=O)C[C@@](O)(C(=O)CO)C[C@@H]3O[C@H]1C[C@H](N)[C@H](O)[C@H](C)O1`, the AC50 is 650 nM.

As to `CC1OC(OC2C=C3CCC4C(CCC5(C)C(c6ccc(=O)oc6)CCC45O)C3(C)CC2)C(O)C(OC2OC(CO)C(O)C(O)C2O)C1O` (configuration not stated), the half-maximal activity concentration (AC50) was less than 38 nM.

For the compound `c1ccc2nc(-c3ccc(N4CCOCC4)cc3)ccc2c1`, the AC50 was 385 nM.

For the compound `COc1cccc(NC(=O)Nc2cccc(C(=O)O)c2)c1`, the AC50 is 645 nM.

For `Nc1ccc(Oc2cccc(Oc3ccc(N)cc3)c2)cc1`, the AC50 was 587 nM.

On to `CCCS(=O)(=O)c1cnc(C2COc3ccccc3O2)nc1N` (configuration not stated), for which the AC50 is 487 nM.

As to `O=C(NCCc1ccccc1F)c1ccc2c(c1)OCCO2`, the AC50 is 140 nM.

As to `COc1ccc(N/C=C/C(=O)c2cc(OC)c(OC)c(OC)c2)cc1`, the AC50 was 2440 nM.

In the case of `COC(=O)C1CCC(=O)N1C(c1ccc(OC)cc1)c1cc(OC)c(OC)c(OC)c1` (configuration not stated), the AC50 is 676 nM.

Take `COc1ccc(OC)c(NS(=O)(=O)c2ccc(N3CCCC3=O)cc2)c1`: the AC50 was 880 nM.

In the case of `Fc1ccc(-c2nnc(NC3=NCCCCC3)o2)cc1`, the AC50 is 372 nM.

For `CC(C)(C)c1ccc(Oc2ccc(N)cc2)cc1`, the AC50 was 248 nM.

On to `COC(=O)C12OCC34C(CC5C(C)=C(O)C(=O)CC5(C)C3C(O)C1O)OC(=O)C(OC(=O)C=C(C)C)C24` (configuration not stated), for which the AC50 is less than 38 nM.

On to `Cc1ccc(C(=O)O/N=C(\N)c2ccccc2)c(Cl)c1`, for which the AC50 was 948 nM.

Turning to `Cc1cnc(NC(=O)c2ccc3c(c2)OCCO3)s1`, the AC50 is 159 nM.

Take `CCOc1ccccc1C1CC(=O)Nc2cc3c(cc21)OCCO3` (configuration not stated): the AC50 was 3820 nM.

Consider `COc1ccc(-c2nsc3c(N4CCCCC4C)ncnc23)cc1` (configuration not stated), for which the AC50 is 51 nM.

On to `Cc1cc(C(=O)CN2C(=O)c3ccccc3S2(=O)=O)c(C)n1CC1CCCO1` (configuration not stated), for which the AC50 was 271 nM.

On to `CC1=CC2OC3CC4OC(=O)C=CC=CC(C(C)O)OCC(O)C(C)CC(=O)OCC2(CC1O)C4(C)C31CO1` (configuration not stated), for which the AC50 is less than 38 nM.

Take `COC1C=CC=C(C)C(=O)NC2=CC(=O)C(N)=C(CC(C)CC(OC)C(O)C(C)C=C(C)C1OC(N)=O)C2=O` (configuration not stated): the AC50 is less than 38 nM.

Regarding `COc1ccc(OC)c(-c2nnc3n2N=C(c2ccc(OC)c(OC4CCOC4)c2)CS3)c1` (configuration not stated), the AC50 was 554 nM.

In the case of `COc1ccccc1N1CCN(C(=O)c2cc(=O)c3cc(C)cc(C)c3o2)CC1`, the AC50 was 248 nM.

As to `Cc1ccc(C(=O)O/N=C(\N)c2ccccn2)c(Cl)c1`, the AC50 is 197 nM.

For the compound `Cc1ccc(C(=O)O/N=C(\N)c2ccccn2)cc1`, the AC50 is 213 nM.

In the case of `Cc1ccc(NC(=O)/C=C/c2ccco2)nc1`, the concentration at half-maximal activity (AC50) was 287 nM.

Regarding `COc1ccc(-n2ncc3c(N(C)C4CCCCC4)ncnc32)cc1`, the half-maximal activity concentration (AC50) was 1520 nM.

`Cc1ccc(-n2[nH]c(=O)c(-c3ccccn3)c2C)cc1`: the AC50 is 368 nM.

`CCCCCOC(=O)c1[nH]c2c(c1C)C(=O)CC(c1ccco1)C2` (configuration not stated): the AC50 was 226 nM.

As for `COc1cc(C(=O)N2CCN(c3cc(Cl)ccc3Cl)CC2)cc(OC)c1OC`, the AC50 is 1120 nM.

With `O=C(CCCc1ccccc1)c1ccc2c(c1)OCCO2`, the AC50 is 344 nM.

As to `CC(C)c1ccc(-c2nc3ccccc3s2)cc1`, the AC50 is less than 38 nM.

For the compound `O=C(NNC(=O)c1ccccc1O)c1ccccc1O`, the concentration at half-maximal activity (AC50) was 234 nM.

As for `Cc1cccc(C(=O)O/N=C(\N)c2ccccn2)c1`, the AC50 was 915 nM.

Take `C=CCn1c(SCc2c(C)noc2C)nc2ccccc2c1=O`: the AC50 is 851 nM.

For `CC(=O)O[C@H]1C(=O)[C@@]2(C)C([C@H](OC(=O)c3ccccc3)[C@]3(O)C[C@H](OC(=O)[C@H](O)[C@@H](NC(=O)c4ccccc4)c4ccccc4)C(C)=C1C3(C)C)[C@]1(OC(C)=O)CO[C@@H]1C[C@H]2O` (some centres not stated), the AC50 was 160 nM.

Take `CN(C)CCN1C(=O)c2cccc3cc([N+](=O)[O-])cc(c23)C1=O`: the AC50 is 433 nM.

Consider `COc1ccc(C(=O)Nc2nc3ccccc3s2)c(OC)c1`, for which the AC50 is less than 38 nM.

As for `COc1cc(-c2noc(C)c2/C=C/c2cccc([N+](=O)[O-])c2)cc(OC)c1OC`, the AC50 was 2540 nM.

As to `C(=NN1CCCCCC1)c1ccc2ccccc2n1`, the AC50 was less than 38 nM.

Turning to `CC(=O)OC1(C)CC(C)C(=O)C(C(O)CC2CC(=O)NC(=O)C2)C1` (configuration not stated), the AC50 was 500 nM.

Turning to `CC(=O)OC(C)(C)/C=C/C(=O)[C@](C)(O)C1[C@H](O)C[C@@]2(C)C3CC=C4C(C[C@H](O)C(=O)C4(C)C)[C@]3(C)C(=O)C[C@]12C` (some centres not stated), the AC50 is less than 38 nM.

Regarding `COC(=O)c1[nH]c2c(c1C)C(=O)CC(c1cccc(OC)c1)C2` (configuration not stated), the AC50 is 715 nM.

As for `COc1cccc2c1C(=O)c1c(O)c3c(c(O)c1C2=O)CC(O)(C(C)=NNC(=O)c1ccc(Cl)c(Cl)c1)CC3OC1CC(N)C(O)C(C)O1` (configuration not stated), the AC50 is 1270 nM.

Take `O=C(/C=C\Nc1ccc2c(c1)OCO2)c1ccccn1`: the concentration at half-maximal activity (AC50) was 173 nM.

As to `O=C(Nc1nccs1)c1cc2c(s1)CCCCC2`, the half-maximal activity concentration (AC50) was 128 nM.

With `COc1ccccc1-c1nnc2sc(-c3cc4ccccc4o3)nn12`, the AC50 was 4300 nM.

`C=CCn1c(C)cc(C2=NNC(=NC(C)(C)C)SC2)c1C`: the AC50 is 714 nM.

Turning to `CCC(C)(C)c1ccc(Oc2ccc(N)cc2)cc1`, the AC50 was 173 nM.

With `Cc1csc(NC(=O)CCc2c(C)nc3cc(-c4ccc(Cl)cc4)nn3c2C)n1`, the AC50 was 1160 nM.

Consider `CCc1ccn2cc(-c3cc(-c4ccccc4)no3)nc2c1`, for which the AC50 is 558 nM.

Turning to `CCOc1ccc2c(c1)C(C)=CC(C)(C)N2S(=O)(=O)c1ccc(C)cc1`, the AC50 is 1590 nM.

For `COc1ccc2[nH]c(-c3cccc(F)c3)cc(=O)c2c1`, the AC50 is 1550 nM.

Take `Cc1nc2cc(-c3ccccc3)sc2c(=O)n1N`: the half-maximal activity concentration (AC50) was 284 nM.

As for `Cc1ccc(-c2nc(-c3ccccn3)no2)cc1`, the concentration at half-maximal activity (AC50) is 140 nM.

For `O=C(CN1C(=O)c2ccccc2S1(=O)=O)c1ccc2c(c1)OCCCO2`, the AC50 was 39 nM.

As for `COC(=O)Cc1[nH]n(-c2nc3ccccc3s2)c(=O)c1C(C)=Nc1ccc(C)cc1`, the AC50 is 401 nM.

On to `Cc1ccc(-c2nc(-c3ccccn3)no2)cc1Cl`, for which the AC50 was 351 nM.

For the compound `CC(C)Oc1ccc(C(=O)Nc2nc3ccccc3[nH]2)cc1`, the AC50 was 304 nM.

In the case of `COc1cc(SC)ccc1C(=O)Nc1nc2ccccc2[nH]1`, the AC50 is less than 38 nM.

Take `Cc1ccc(-c2cn3nc(C)c(C)nc3n2)cc1`: the AC50 is 485 nM.

With `Nc1ncnc2c(C3OC(CO)C(O)C3O)scc12` (configuration not stated), the AC50 was 2450 nM.

On to `NC1=C(Cl)C(=O)c2ccc(S(N)(=O)=O)cc2C1=O`, for which the AC50 was 226 nM.

Regarding `CCN1C=CC(=C2C(=O)c3ccccc3C2=O)C=C1`, the AC50 was 89 nM.

`COc1cc(SC)ccc1C(=O)Nc1ccc(Br)cn1`: the AC50 is 500 nM.

As for `Cc1cc(/C=N/Nc2ncnc(N)c2[N+](=O)[O-])c(C)n1-c1ccccc1`, the AC50 was 636 nM.

As for `COc1ccc(C(=O)Nc2ccccc2C(=O)N/N=C/c2ccc(O)c(OC)c2)cc1`, the AC50 was 1400 nM.

Consider `COC(=O)c1cc(C(=O)N2CCN(c3cccc(Cl)c3)CC2)cc([N+](=O)[O-])c1`, for which the AC50 was 470 nM.

As to `Cc1cc(C)c2c(N)c(C(=O)Nc3ncc(C)s3)sc2n1`, the concentration at half-maximal activity (AC50) was 388 nM.

For `COc1cc2cc(C(=O)N3CC(COS(C)(=O)=O)c4ccc(O)cc43)[nH]c2c(OC)c1OC` (configuration not stated), the AC50 was less than 38 nM.

Consider `Cc1ccc(C(=O)N/N=C/c2ccc([N+](=O)[O-])s2)cc1`, for which the AC50 is 1010 nM.

Take `CC(C)(O)/C=C/C(=O)[C@](C)(O)C1[C@H](O)C[C@@]2(C)C3CC=C4C(C[C@H](O)[C@@H](O)C4(C)C)[C@]3(C)C(=O)C[C@]12C` (some centres not stated): the AC50 is 900 nM.

On to `Nc1nc(F)nc2c1ncn2[C@@H]1O[C@H](CO)[C@@H](O)[C@H]1O`, for which the concentration at half-maximal activity (AC50) was 483 nM.

For `Cc1ccc2nc(NC(=O)c3ccccn3)sc2c1`, the AC50 was 220 nM.

In the case of `O=C(CN1C(=O)c2ccccc2S1(=O)=O)c1ccc(OC(F)F)cc1`, the AC50 was 657 nM.

As for `CC(=O)OC(C)(C)/C=C/C(=O)C(C)(O)C1[C@H](O)C[C@@]2(C)C3CC=C4C(CC[C@@H](O)C4(C)C)[C@]3(CO)C(=O)C[C@]12C` (some centres not stated), the AC50 is 85 nM.

In the case of `O=c1c2ccccc2oc2cc(C#CC3(O)CCCCC3)ccc12`, the AC50 is 1840 nM.

As to `O=C(NC1=NCCS1)C1COc2ccccc2O1` (configuration not stated), the AC50 was 296 nM.

Consider `Cc1ccc(-n2nnc(-c3nccs3)n2)cc1`, for which the concentration at half-maximal activity (AC50) is 571 nM.

Turning to `CC1=CC(C)CC(C)OC(=O)CC(c2ccc(O)cc2)NC(=O)C(Cc2c(Br)[nH]c3ccccc23)N(C)C(=O)C(C)NC(=O)C(C)C1` (configuration not stated), the AC50 is 146 nM.
